From patent US6590071B1, “Reversible aqueous pH sensitive lipidizing reagents, compositions and methods of use” (University of Southern California, priority 1998, dated 2003)
No end group written: not given here.

Assays:
[1] = tested on: fasted diabetic rats; assay: Blood glucose level in fasted diabetic rats after oral administration; type: in vivo, rat; settings: 10 U/kg oral, water/oil microemulsion, in 9 hours (FIG. 6)
Method: The blood glucose level of rats was increased one week after inducing diabetes from an average of 100 mg/dl to 420 mg/dl (non-fasted rats). […] This is possibly due to the time required for REAL-insulin to be hydrolyzed and to release free insulin. After injection of insulin the fast blood glucose level of rats was back to original within 24 h. However, in the case of the rats treated with REAL-insulin, the drug effect on the fast blood glucose level lasted for 3 days (FIG. 5). Fasted diabetic rats were also administered by oral means 10 U/kg of insulin, REAL-insulin and placebo. Rats were fasted 16 h prior to oral administration. A water/oil microemulsion was used as the drug carrier.

[2] = tested on: hyperglycemic (diabetic) Sprague Dawley rats; assay: Blood glucose level in streptozotocin-induced diabetic rats after subcutaneous injection; type: in vivo, rat
Method: Diabetes was induced in Sprague Dawley rats using i.v. injection of 60 mg/kg, streptozotocin. Solutions of 0.5 Unit/ml insulin or REAL-insulin in borate buffer (pH 10, 0.1M) were prepared. Rats were fasted 16 h prior to the experiment and were injected subcutaneously 0.5 Unit/kg of insulin or REAL-insulin. The blood glucose level of rats was monitored at different time points for 9 h. After this time rats were fed and the blood glucose level was measured after 15 h of feeding. The rats were again fasted and blood glucose level was measured after 16 h. The period of fasting and feeding was continued for 3 days.

[3] = tested on: vasopressin deficient Brattleboro rats; assay: In vivo effect on urine output in vasopressin deficient Brattleboro rats; parameters: species or system rat; settings: 5 μg/kg subcutaneous; for time after injection at which urine excretion was back to original: Brattleboro rats (FIG. 3); for delay in urine excretion: first 8 h (FIG. 2)
Method: REAL-AVP was injected subcutaneously in animals (5 μg/kg) and urine was collected at different time points. […] AVP and Pal-AVP have similar effects with a delay in urine excretion of 4 h. A longer delay in urine excretion, up to 6 h, was observed after injection of REAL-AVP. […] The amount of urine excretion was back to original 24 h after injection of Pal-AVP and AVP. However, the effect of REAL-AVP lasted for 3 days (FIG. 3).

Compound	reduction of the blood glucose level [1]	time for fast blood glucose level to be back to original ([2]; 0.5 U/kg subcutaneous, diabetic rats (FIG. 5))	change in blood glucose level within the first hour ([2]; subcutaneous, fasted diabetic rats (FIG. 4))	time after injection at which urine excretion was back to original [3]	delay in urine excretion ([3]; Brattleboro rats)	effectiveness compared with REAL-AVP ([3]; Brattleboro rats)
insulin	no significant reduction	≤ 24 h	significant drop			
NC(=O)CC[C@@H]1NC(=O)[C@H](Cc2ccccc2)NC(=O)[C@H](Cc2ccc(O)cc2)NC(=O)[C@@H](N)CSSC[C@@H](C(=O)N2CCC[C@H]2C(=O)N[C@@H](CCCN=C(N)N)C(=O)NCC(N)=O)NC(=O)[C@H](CC(N)=O)NC1=O [AVP, Arginine vasopressin]				24 h	4 h	
Pal-AVP: Direct lipidization of AVP to palmitic acid (CYFQNCPRG; ends and bridges not checked; also: palmitoylated, position not given here; UniProt P01185 20-28, looked up)				24 h	4 h	not as effective as REAL-AVP
